Data on seven compounds can be found in patent US20200038399A1, “FORMULATIONS, METHODS, KIT, AND DOSAGE FORMS FOR TREATING BACTERIAL INFECTION” (Motif BioSciences Inc., priority 2016, published 2020).

Structures are written as SMILES. Positions of bridges follow the written chain, without caps; N, C: chain ends. Non-standard residues stand in square brackets, D forms with d. Residues, ends and D or L forms follow the SMILES beside them. *: point of attachment. Ileψ(thiazoline)Cys = CC[C@H](C)[C@H](N)C1=N[C@H](C(=O)*)CS1; dOrn = NCCC[C@@H](N)C(=O)O Bounds are passed on as bounds.

Assay [1] deals with S. aureus 101. Nature of the assay: MIC determination. In kind it is cell-based, Staphylococcus aureus. The conditions noted are these: Staphylococcus aureus, 101, 18 h; read-out: Minimum inhibitory concentrations (MIC). The method, boiled down: (§1)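 Visible-growth endpoint after 18 h, 37 °C. Cation-adjusted Mueller-Hinton broth was used for K. pneumoniae and S. aureus in ambient air; H. influenzae (HTM) and M. catarrhalis (Brain Heart Infusion) were incubated under 5% CO2.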

For assay [2], the system named is S. pneumoniae 1/1. Description: MIC determination. The conditions noted are these: Streptococcus pneumoniae; S. pneumoniae 1/1; 18 hours at 37° C., 5% CO2; read-out: Minimum inhibitory concentrations (MIC). In kind it is cell-based, Streptococcus pneumoniae.
The subject of assay [3] is Haemophilus influenzae ATCC 49766. Description: MIC determination. In kind it is cell-based. To be noted: Haemophilus influenzae, ATCC49766; H. Influenza 49766; 18 hours at 37° C., 5% CO2; read-out: Minimum inhibitory concentrations (MIC). The procedure, abridged: as §1
Assay [4] has as its system Klebsiella pneumoniae ATCC 33495. Description: MIC determination. In kind it is cell-based. To be noted: Klebsiella pneumoniae, ATCC33495; K. pneumonia 33495; 18 hours at 37° C.; read-out: Minimum inhibitory concentrations (MIC). The procedure, abridged:
as §1

Assay [5] concerns Moraxella catarrhalis RA 21. Nature of the assay: MIC determination. In kind it is cell-based. To be noted: Moraxella catarrhalis, RA21; M. catarrhalis RA 21; 18 hours at 37° C., 5% CO2; read-out: Minimum inhibitory concentrations (MIC). The method, boiled down: as §1
The test system of assay [6] is Staphylococcus aureus ATCC 25923. Description: MIC determination. In kind it is cell-based. To be noted: Staphylococcus aureus, ATCC25923; S. aureus 25923; 18 hours at 37° C.; read-out: Minimum inhibitory concentrations (MIC). The procedure, abridged: as §1
For assay [7], the system named is Streptococcus pneumoniae ATCC 49619. Nature of the assay: MIC determination. In kind it is cell-based. To be noted: Streptococcus pneumoniae, ATCC49619; S. pneumoniae 49619; 18 hours at 37° C., 5% CO2; read-out: Minimum inhibitory concentrations (MIC).
Assay [8] deals with Haemophilus influenzae ATCC 49766. Description: checkerboard synergy assay with iclaprim. In kind it is cell-based. The conditions noted are these: antibiotic in combination with iclaprim; H. influenzae 49766.
Assay [9] relates to Klebsiella pneumoniae ATCC 33495. Nature of the assay: checkerboard synergy assay with iclaprim. In kind it is cell-based. To be noted: antibiotic in combination with iclaprim; K. pneumoniae 33495.
In assay [10] the test system is Moraxella catarrhalis RA 21. Nature of the assay: checkerboard synergy assay with iclaprim. In kind it is cell-based. The conditions noted are these: antibiotic in combination with iclaprim; M. catarrhalis RA 21.
Assay [11] relates to Staphylococcus aureus ATCC 25923. Nature of the assay: checkerboard synergy assay with iclaprim. In kind it is cell-based. The conditions noted are these: antibiotic in combination with iclaprim; S. aureus 25923.
In assay [12] the test system is Streptococcus pneumoniae ATCC 49619. Nature of the assay: checkerboard synergy assay with iclaprim. The conditions noted are these: antibiotic in combination with iclaprim; S. pneumoniae 49619. In kind it is cell-based.
Assay [13] has as its system S. aureus 101. Nature of the assay: checkerboard synergy assay with iclaprim. To be noted: antibiotic in combination with iclaprim. In kind it is cell-based, Staphylococcus aureus.
The test system of assay [14] is S. pneumoniae 1/1. Nature of the assay: checkerboard synergy assay with iclaprim. In kind it is cell-based, Streptococcus pneumoniae. The conditions noted are these: antibiotic in combination with iclaprim.

For the compound `NC(=O)c1cc[n+](CC2=C(C(=O)O)N3C(=O)[C@@H](NC(=O)[C@@H](c4ccccc4)S(=O)(=O)[O-])[C@H]3SC2)cc1` [Cefsulodine, Cefsulodin], the MIC in the assay on S. aureus 101 [1] was 64 µg/mL; in the assay with S. pneumoniae 1/1 [2], greater than 128 µg/mL; in assay [3], greater than 128 µg/mL; in [4] it was greater than 128 µg/mL; in assay [5], greater than 128 µg/mL; in [6], 64 µg/mL. Moreover, the MIC in [7] worked out at 16 µg/mL. The “Con (Conclusion)” value in [8], in [9] and in assay [10] was “Ind (Indifference (Ind))” each time. The “Σ FIC” value was 1.01-1.50 in assay [8]; 1.01-1.50 in assay [9]; 1.00-1.25 in [10]; 1.00-1.25 in [11]; 1.13-1.50 in assay [12]; 1.00-1.25 with S. aureus 101 [13]. Besides, the “Σ FIC” value in the assay on S. pneumoniae 1/1 [14] is 1.01-1.50.

For `[H]/N=C(/N)N[C@H]1[C@H](O)[C@@H](O)[C@H](O[C@@H]2O[C@@H](C)[C@](O)(C=O)[C@H]2O[C@@H]2O[C@@H](CO)[C@H](O)[C@@H](O)[C@@H]2NC)[C@@H](N/C(N)=N\[H])[C@@H]1O` [Streptomycin], the MIC in the assay on S. aureus 101 [1] was 8 µg/mL; with S. pneumoniae 1/1 [2], greater than 128 µg/mL; in assay [3] it was 0.5 µg/mL; in [4], 64 µg/mL; in [5], 8 µg/mL; in assay [6] it was 4 µg/mL. The MIC in assay [7] came out at 32 µg/mL. The results for the “Con (Conclusion)” value in assay [8], in assay [9] and in assay [10] were “Ind (Indifference (Ind))”, “Ad (Additivity (Ad))” and “Ind (Indifference (Ind))”, respectively. The “Σ FIC” value is 1.02-1.50 in assay [8]; 0.63-1.06 in [9]; 1.06-1.50 in assay [10]; 1.13-1.50 in assay [11]; 1.00-1.25 in assay [12]; 1.13-1.50 in the assay with S. aureus 101 [13]. The “Σ FIC” value in the assay on S. pneumoniae 1/1 [14] was 1.01-1.50.

With `CC[C@H]1OC(=O)[C@H](C)[C@@H](O[C@H]2C[C@@](C)(OC)[C@@H](O)[C@H](C)O2)[C@H](C)[C@@H](O[C@@H]2O[C@H](C)C[C@H](N(C)C)[C@H]2O)[C@](C)(O)C[C@@H](C)/C(=N\OCOCCOC)[C@H](C)[C@@H](O)[C@]1(C)O` [Roxithromycin], the MIC with S. aureus 101 [1] was greater than 128 µg/mL; in the assay with S. pneumoniae 1/1 [2], 0.5 µg/mL; in assay [3], 16 µg/mL; in assay [4] it was greater than 128 µg/mL; in assay [5], 0.25 µg/mL; in [6] it was 1 µg/mL. Besides, the MIC in assay [7] turned out to be 0.5 µg/mL. Moreover, the “Con (Conclusion)” value in assay [8], in assay [9] and in assay [10] was “Ind (Indifference (Ind))” in each case. Moreover, the “Σ FIC” value in assay [8] is 1.03-1.50; in assay [9], 1.01-1.50; in [10], 1.03-1.50; in assay [11] it was 1.06-1.50; in assay [12], 1.02-1.50; in the assay with S. aureus 101 [13], 1.01-1.80. In addition, in the assay with S. pneumoniae 1/1 [14], the “Σ FIC” value is on record as 0.75-1.13.

In the case of `CC[C@H](C)[C@H](N)C1=N[C@H](C(=O)N[C@@H](CC(C)C)C(=O)N[C@H](CCC(=O)O)C(=O)N[C@H](C(=O)N[C@H]2CCCCNC(=O)[C@H](CC(N)=O)NC(=O)[C@@H](CC(=O)O)NC(=O)[C@H](Cc3cnc[nH]3)NC(=O)[C@@H](Cc3ccccc3)NC(=O)[C@H]([C@@H](C)CC)NC(=O)[C@@H](CCCN)NC2=O)[C@@H](C)CC)CS1` [Bacitracin] ({Ileψ(thiazoline)Cys}-L[dE]IK[dOrn]I[dF]H[dD]N; lactam 4-C), the MIC in the assay with S. aureus 101 [1] was 32 µg/mL; in the assay on S. pneumoniae 1/1 [2], 8 µg/mL; in assay [3], greater than 128 µg/mL; in assay [4], greater than 128 µg/mL; in assay [5], 8 µg/mL; in assay [6] it was greater than 128 µg/mL. The MIC in assay [7] turned out to be 32 µg/mL. For the same compound, the figures for the “Con (Conclusion)” value in assay [8], in assay [9] and in [10] were “Ind (Indifference (Ind))”, “Ind (Indifference (Ind))” and “Ad (Additivity (Ad))”, respectively. For the same compound, the “Σ FIC” value was 1.01-1.50 in [8]; 1.01-1.50 in assay [9]; 0.56-1.25 in [10]; 0.74-1.13 in [11]; 0.75-1.13 in assay [12]; 0.75-1.13 in the assay on S. aureus 101 [13]. The “Σ FIC” value with S. pneumoniae 1/1 [14] is 0.51-1.06.

With `CC[C@H]1OC(=O)[C@H](C)[C@@H](O[C@H]2C[C@@](C)(OC)[C@@H](O)[C@H](C)O2)[C@H](C)[C@@H](O[C@@H]2O[C@H](C)C[C@H](N(C)C)[C@H]2O)[C@](C)(O)C[C@@H](C)C(=O)[C@H](C)[C@@H](O)[C@]1(C)O` [Erythromycin], the MIC with S. aureus 101 [1] was greater than 128 µg/mL; in the assay on S. pneumoniae 1/1 [2], 0.125 µg/mL; in assay [3], 8 µg/mL; in assay [4], 128 µg/mL; in assay [5], 0.125 µg/mL; in assay [6], 0.5 µg/mL. Also, the MIC in [7] was found to be 0.125 µg/mL. Besides, the “Con (Conclusion)” value in assay [8] was “Ad (Additivity (Ad))”; in assay [9] it was “Ad (Additivity (Ad))”; in [10], “Ind (Indifference (Ind))”. Moreover, the “Σ FIC” value in assay [8] was 0.75-1.00; in [10], 1.06-1.50; in [11] it was 1.13-1.50; in assay [12], 1.06-1.50; with S. aureus 101 [13] it was 1.01-1.50; in the assay with S. pneumoniae 1/1 [14], 1.06-1.50.

As to `Cc1onc(-c2ccccc2)c1C(=O)N[C@@H]1C(=O)N2[C@@H]1SC(C)(C)[C@@H]2C(=O)O` [Oxacillin], the MIC was 8 µg/mL in the assay with S. aureus 101 [1]; 32 µg/mL in the assay with S. pneumoniae 1/1 [2]; 16 µg/mL in assay [3]; greater than 128 µg/mL in assay [4]; 32 µg/mL in [5]; 0.125 µg/mL in assay [6]. In addition, the MIC in assay [7] is 2 µg/mL. In addition, the “Con (Conclusion)” value in assay [8], in assay [9] and in [10] was “Ind (Indifference (Ind))” throughout. The “Σ FIC” value in assay [8] was 1.00-1.25; in assay [9], 1.01-1.50; in assay [10] it was 1.06-1.50; in assay [11], 1.06-1.50; in [12] it was 1.06-1.50; in the assay with S. aureus 101 [13], 1.00-1.25. In the assay on S. pneumoniae 1/1 [14], the “Σ FIC” value is listed as 1.06-1.50.

With `Cc1onc(-c2ccccc2Cl)c1C(=O)N[C@@H]1C(=O)N2[C@@H]1SC(C)(C)[C@@H]2C(=O)O` [Cloxacillin], the MIC with S. aureus 101 [1] is 2 µg/mL; in the assay on S. pneumoniae 1/1 [2], 64 µg/mL; in [3] it was 16 µg/mL; in [4] it was greater than 128 µg/mL; in assay [5], 64 µg/mL; in [6], 0.25 µg/mL. Besides, the MIC in [7] was determined as 8 µg/mL. In addition, the figures for the “Con (Conclusion)” value in [8], in assay [9] and in assay [10] were “Ind (Indifference (Ind))”, “Ind (Indifference (Ind))” and “Ad (Additivity (Ad))”, respectively. For the same compound, the “Σ FIC” value is reported as 1.13-1.50 in [8]; 1.01-2.50 in [9]; 0.53-1.00 in assay [10]; 0.99-1.25 in assay [11]; 1.00-1.25 in assay [12]; 1.00-1.25 in the assay with S. aureus 101 [13]. In the assay with S. pneumoniae 1/1 [14], the “Σ FIC” value is recorded as 1.00-1.25.
